Assay results: paper PMC2854646 (Oncogene, 2008)

Target: T1, E1 (ubiquitin-activating enzyme) (Homo sapiens, UniProt P22314)
T1 sequence (P22314 2-1058): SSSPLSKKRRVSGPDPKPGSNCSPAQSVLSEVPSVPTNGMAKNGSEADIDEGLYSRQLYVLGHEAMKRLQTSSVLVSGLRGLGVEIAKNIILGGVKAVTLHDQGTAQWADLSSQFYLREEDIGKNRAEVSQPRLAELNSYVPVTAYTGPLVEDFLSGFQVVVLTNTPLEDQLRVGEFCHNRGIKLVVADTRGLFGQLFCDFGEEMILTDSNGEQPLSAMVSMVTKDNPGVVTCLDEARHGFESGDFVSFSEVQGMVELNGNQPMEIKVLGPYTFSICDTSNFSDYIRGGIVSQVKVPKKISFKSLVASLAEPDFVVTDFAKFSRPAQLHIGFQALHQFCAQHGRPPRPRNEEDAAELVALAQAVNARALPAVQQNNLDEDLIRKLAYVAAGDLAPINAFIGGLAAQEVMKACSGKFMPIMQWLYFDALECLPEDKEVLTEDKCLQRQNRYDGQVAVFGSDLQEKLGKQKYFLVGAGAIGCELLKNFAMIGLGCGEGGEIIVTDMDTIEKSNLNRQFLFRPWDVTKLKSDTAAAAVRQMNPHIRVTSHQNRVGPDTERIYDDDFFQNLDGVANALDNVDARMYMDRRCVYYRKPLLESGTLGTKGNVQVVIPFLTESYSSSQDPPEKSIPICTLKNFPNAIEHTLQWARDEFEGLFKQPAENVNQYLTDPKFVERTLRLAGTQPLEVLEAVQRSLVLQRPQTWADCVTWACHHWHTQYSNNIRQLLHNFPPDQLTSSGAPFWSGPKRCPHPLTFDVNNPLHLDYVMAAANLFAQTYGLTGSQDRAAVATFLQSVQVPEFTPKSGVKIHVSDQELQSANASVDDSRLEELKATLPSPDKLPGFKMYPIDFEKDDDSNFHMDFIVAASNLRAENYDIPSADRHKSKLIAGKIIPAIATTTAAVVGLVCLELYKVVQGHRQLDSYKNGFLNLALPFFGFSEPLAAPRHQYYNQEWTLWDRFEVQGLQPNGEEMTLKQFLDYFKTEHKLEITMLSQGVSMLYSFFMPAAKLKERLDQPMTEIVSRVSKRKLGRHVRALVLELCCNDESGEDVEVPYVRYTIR
Assay: ubiquitin~E1 thioester immunoblot
Format: cell-based

Q: How did the IC50 turn out when `CCOC(=O)N1CCN(/[N+]([O-])=N/Oc2ccc([N+](=O)[O-])cc2[N+](=O)[O-])CC1` [JS-K, O^2-(2,4-dinitrophenyl) 1-[(4-ethoxycarbonyl)piperazin-1-yl]diazen-1-ium-1,2-diolate] was run?
A: ~2000 nM
